Data taken from article PMC9963373, “Rationalizing the Binding Modes of PET Radiotracers Targeting the Norepinephrine Transporter” (Pharmaceutics, 2023).

What was measured:
NET [1] = biological target: T1, NET (Homo sapiens, UniProt P23975); experiment: Competitive cellular uptake assay against [3H]NE uptake in SK-N-SH cells
Text: It should be noted that the NET affinities of the tested compounds are expressed as IC50 in the current manuscript instead of the dissociation constant Kd. First, because all the tested compounds are substrates of NET that can be transported, they share the same binding site. […] Therefore, the IC50 value in the current study is considered equal to Kd without additional correction.
Competitive Cellular Uptake Studies
were cultivated according to the instructions from the supplier (Sigma-Aldrich Chemie GmbH,
Munich, Germany). One day before the competitive assay, the cells were seeded in 24-well plates
at a density of 1 × 10^5 cells/well and incubated in 0.5 mL of Eagle’s minimum essential medium
(EMEM) at 37 °C overnight. The medium was removed, and the cells were washed with 0.5 mL of
Dulbecco’s modified Eagle’s medium (DMEM) with low glucose containing 0.1% bovine serum
albumin (BSA). After washing, DMEM/0.1% BSA (300 µL) was added along with 50 µL of pargyline
presence of pyrogallol (20 µM final concentration, catechol-O-methyl transferase inhibitor) [1] and
pargyline (100 µM final concentration, monoamine oxidase inhibitor) [2], 50 µL of working solution
GBq/mmol, NET678250UC, PerkinElmer LAS GmbH, Germany) in DMEM/0.1% BSA together with
50 µL of the test compounds (desipramine, MIBG, HED and cold re ferences, each at different
incubation volume. The addition of the inhibitors of both enzymes involved in the natural
time. The plates were incubated at 37°C for 60 min. The cells were then washed with ice-cold PBS
(2 × 0.5 mL) followed by the addition of NaOH solution (0.1 N, 500 μL) and collection of the cell
lysates. Cell lysates (140 µL) were mixed with 1.8 mL of scintillation cocktail (Hionic-Fluor,
PerkinElmer, Rodgau, Germany) and radioactivity was measured in a liquid scintillation analyzer
All experimental data are presented as mean
± SD, with individual numbers measured in triplicate in experiment performed on 2–3 separate

[2] = Rat biodistribution study, heart-to-blood ratio of fluorine-18-labeled tracers; assay type: in vivo; settings: male Wistar rats, 10 min after tail vein administration of fluorine-18-labeled tracer (1-2 MBq), n = 3-6
Text: (§1) The experimental protocols were approved by the Animal Ethics Committee of the National Cerebral and Cardiovascular Center, Research Institute, Osaka, Japan (approval number 18019) and conducted in strict accordance with the Guide for the Care and Use of Laboratory Animals published by the US National Institutes of Health and the ARRIVE guidelines. Anesthesia was induced in male Wistar rats (n = 3–6 for each radiotracer, weighing 200–250 g on average, Charles River Laboratories, Research Models and Services, Germany GmbH, Sulzfeld, Germany) by using 5% isoflurane and maintained during the whole experiment with 2% isoflurane. Large animal PET imaging was performed on rhesus macaques (n = 2, weighing 3.9–4.2 kg, Primate Research Institute Kyoto University, Aichi, Japan). The induction of anesthesia in non-human primates (NHPs) was conducted by intramuscular injection of ketamine (1.5 mg/kg) and xylazine (0.6 mg/kg) to allow animal preparation and handling. After a tracheal cannula was inserted, 1.5% sevoflurane (SEVOFLURANE Inhalation Solution, Pfizer Japan Inc., Tokyo, Japan) vaporized with 100% oxygen was inhaled, and the tidal volume and respiratory rate of the ventilator were monitored and maintained in the normal range throughout the imaging sessions with an anesthesia workstation (Apollo®, Drägerwerk AG & Co. KGaA, Lübeck, Germany).
(§2) Preliminary PET imaging of [^18F]AF78(F) in rodents (n = 2) and NHPs (n = 2) was obtained according to a previously described protocol. For the rat biodistribution studies (n = 3–6 for each tracer), radiotracers (1–2 MBq) were administered via the tail vein. Ten minutes after radiotracer administration, the animals were euthanized. The organs of interest were harvested for tissue counting with a γ-counter (2480 Automatic Gamma Counter WIZARD^2, PerkinElmer LAS GmbH, Rodgau, Germany). Following weight and decay correction of the tissue counts, the heart-to-blood (H/B) ratios were calculated. A detailed experimental description can be found in the Supplementary Material. […]
PET Imaging and Biodistribution Study […]
Barbara, CA, US). For the rat biodistribution studies, radiotracers (1–2 MBq) were administered via the tail vein. Ten minutes after radiotracer administration, the animals were euthanized. The organs of interest were harvested for tissue counting with a γ-counter (2480 Automatic Gamma Counter WIZARD2, PerkinElmer, Rodgau, Germany). Following weight and decay correction of the tissue counts, the heart-to-blood ratios were calculated. NHPs (n = 2) were anesthetized during the imaging study and studied on a clinical PET scanner (PCA-2000A, Toshiba Medical Systems Corporation, Tochigi, Japan). After a 5 min transmission scan and an intravenous injection of the […]
and 300 s × 11) was started. […]

[3] = PET/CT imaging in healthy rats; assay type: in vivo; settings: n = 2, 10-20 MBq via tail vein
Procedure: as §2
days. IC50 values were determined using nonlinear regression log(inhibitor) vs. normalized response in GraphPad Prism 8.4.3.
PET Imaging and Biodistribution Study
PET imaging of [18F]AF78(F) in rodents (n = 2) was obtained using a dedicated small animal PET system (microPET Focus 120, Siemens, Germany). […]
initiated with acquisition in list-mode format. […] Following weight and decay correction of the tissue counts, the heart-to-blood ratios were calculated. […]
injected 10 min before tracer administration, after which the PET scan started immediately. […] The obtained PET images were analyzed with the public domain tool AMIDE imaging software (A Medical Imaging Data Examiner, version 1.01).

NET [4] = experiment: PET imaging in non-human primates with and without desipramine blockade; assay type: in vivo, rhesus macaques; settings: NHPs, n = 2; specificity proven by desipramine 1 mg/kg i.v. 10 min before tracer
Text: as §1, with “Large animal PET imaging was performed on rhesus macaques (n = 2, weighing 3.9–4.2 kg, Primate Research Institute Kyoto University, Aichi, Japan). The induction of anesthesia in non-human primates (NHPs) was conducted by intramuscular injection of ketamine (1.5 mg/kg) and xylazine (0.6 mg/kg) to allow animal preparation and handling.” left out
Preliminary PET imaging of [^18F]AF78(F) in rodents (n = 2) and NHPs (n = 2) was obtained according to a previously described protocol. […] Following weight and decay correction of the tissue counts, the heart-to-blood (H/B) ratios were calculated. […]

NET [5] = biological target: T1, NET; parameters: Human neuroblastoma cell line SK-N-SH from metastatic bone marrow stably expressing NET; host or cells: SK-N-SH human neuroblastoma cells; method as in PMID 23306137; settings: NE-NET; read-out: Michaelis constant Km; cited from earlier work

T1 sequence (P23975 whole entry): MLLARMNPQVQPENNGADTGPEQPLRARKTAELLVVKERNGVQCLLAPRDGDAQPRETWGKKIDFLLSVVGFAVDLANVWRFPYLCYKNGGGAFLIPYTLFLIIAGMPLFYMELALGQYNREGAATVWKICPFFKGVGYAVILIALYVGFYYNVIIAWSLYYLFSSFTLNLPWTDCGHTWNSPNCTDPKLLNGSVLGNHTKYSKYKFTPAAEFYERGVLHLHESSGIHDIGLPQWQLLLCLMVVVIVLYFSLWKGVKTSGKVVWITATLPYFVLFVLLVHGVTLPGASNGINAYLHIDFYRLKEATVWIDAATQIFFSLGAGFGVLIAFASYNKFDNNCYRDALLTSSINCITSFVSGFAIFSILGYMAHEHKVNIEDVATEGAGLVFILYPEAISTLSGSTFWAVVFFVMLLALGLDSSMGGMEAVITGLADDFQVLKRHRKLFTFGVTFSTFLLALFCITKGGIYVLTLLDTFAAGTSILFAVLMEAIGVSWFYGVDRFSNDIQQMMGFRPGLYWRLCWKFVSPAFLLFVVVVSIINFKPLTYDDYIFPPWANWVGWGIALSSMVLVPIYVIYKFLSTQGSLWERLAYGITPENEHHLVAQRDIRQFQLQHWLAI

Compound	IC50 (NET [1])	heart-to-blood (H/B) ratio [2]	also measured
N=C(N)NCCc1ccc(OCCCF)c(Cl)c1 [AF78(Cl)]	0.94 ± 0.28 µM	10.4 ± 0.4	
N=C(N)NCCc1ccc(OCCCF)c(F)c1 [AF78(F)]		13.2 ± 1.2	systemic distribution of the radiotracer (PET/CT) [3]: homogenous distribution throughout the left ventricular wall; uptake in the heart (PET) (NET [4]): distinct NET-mediated uptake in the heart
N=C(N)NCCc1ccc(OCCCF)cc1 [AF78(H)]	4.17 ± 0.92 µM		
N=C(N)NCCc1ccc(OCCCF)c(O)c1 [AF78(OH)]	22.7 ± 3.58 µM		
NC[C@H](O)c1ccc(O)c(O)c1 [NE, norepinephrine]			Km (NET [5]): 0.28 ± 0.03 µM
N=C(N)NCCc1ccc(OCCCF)c(Br)c1 [AF78(Br)]	3.32 ± 0.72 µM	8.7 ± 1.4	
N=C(N)NCCc1ccc(OCCCF)c(I)c1 [AF78(I)]	6.51 ± 3.32 µM	5.9 ± 0.4	fold less potent than AF78(F) (NET [1]; ratio of NET affinities in the competitive cellular uptake assay): 15 fold
